Values of other authors as cited in patent US7590494B1, “Drug design based on the structure of LTA4 hydrolase” (priority 1999, dated 2009).

Biological target: T1, LTA4 hydrolase (Homo sapiens, UniProt P09960)
T1 sequence (P09960 1-611): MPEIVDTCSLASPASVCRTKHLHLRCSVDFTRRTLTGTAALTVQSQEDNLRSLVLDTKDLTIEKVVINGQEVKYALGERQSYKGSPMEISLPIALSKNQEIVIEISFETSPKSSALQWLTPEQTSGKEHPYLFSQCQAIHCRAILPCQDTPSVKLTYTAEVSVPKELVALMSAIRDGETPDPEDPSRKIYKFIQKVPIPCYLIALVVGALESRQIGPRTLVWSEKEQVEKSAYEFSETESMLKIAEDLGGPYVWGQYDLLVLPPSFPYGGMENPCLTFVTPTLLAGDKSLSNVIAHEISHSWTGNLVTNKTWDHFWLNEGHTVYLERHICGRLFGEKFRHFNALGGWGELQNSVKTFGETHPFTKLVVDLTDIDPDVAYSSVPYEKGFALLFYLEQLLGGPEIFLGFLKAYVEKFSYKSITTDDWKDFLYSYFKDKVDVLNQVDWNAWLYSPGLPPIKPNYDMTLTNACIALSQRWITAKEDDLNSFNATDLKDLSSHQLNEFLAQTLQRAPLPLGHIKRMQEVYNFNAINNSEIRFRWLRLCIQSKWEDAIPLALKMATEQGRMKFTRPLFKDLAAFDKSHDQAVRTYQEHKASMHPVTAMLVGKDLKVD
Conditions: qualitative statement from Örning et al. 1991

Row | inhibition of LTA4 hydrolase | Compound
1 | inhibited | CC(C)C[C@H](NC(=O)[C@@H](O)[C@H](N)Cc1ccccc1)C(=O)O [bestatin]
2 | inhibited | C[C@H](CS)C(=O)N1CCC[C@H]1C(=O)O [captopril]
